Measurements reported in ChEMBL document CHEMBL1158999, “Biologically active gamma-lactones and methylketoalkenes from Lindera benzoin” (J Nat Prod, 1992).
Values after ≈ are worked out from the molar mass of the structure shown.

Assays:
A549 = assay: Cytotoxicity against human A549 cells; format: functional; conditions: read-out: ED50 (the source's name)
HT-29 = assay: Cytotoxicity against human HT-29 cells; format: functional; conditions: read-out: ED50 (the source's name)
Artemia salina = assay: Toxicity in Artemia salina; format: organism-based; conditions: in vivo
MCF7 = assay: Cytotoxicity against human MCF7 cells; format: functional; conditions: read-out: ED50 (the source's name)
Aphis gossypii = assay: Insecticidal activity against Aphis gossypii assessed as mortality at 12 ppm; format: functional
Tetranychus urticae = assay: Insecticidal activity against Tetranychus urticae assessed as mortality at 12 ppm; format: functional
[1] = system: Diabrotica undecimpunctata; assay: Insecticidal activity against Diabrotica undecimpunctata assessed as mortality at 12 ppm; format: functional
[2] = system: Agrobacterium tumefaciens; assay: Antitumor activity against Agrobacterium tumefaciens-induced crown gall tumor in potato tubers at by potato disk assay; format: functional
Spodoptera eridania = assay: Insecticidal activity against Spodoptera eridania assessed as mortality at 12 ppm; format: functional

Compound	EC50 (A549) [µg/mL]	EC50 (HT-29) [µg/mL]	LC50 (Artemia salina) [ppm]	EC50 (MCF7) [µg/mL]	Activity (Aphis gossypii) [%]	Activity (Tetranychus urticae) [%]	Activity [1] [%]	inhibition (INH) [2] [%]	Activity (Spodoptera eridania) [%]
CCCCC/C=C\C/C=C\CCCC(C)=O	> 10	> 10	2.9	> 10					
C=C1OC(=O)/C(=C/CCCC/C=C\CCCCCCCCC)[C@@H]1O [ISOLINDERENOLIDE]	3.01 (≈ 9 µM)	1.9 (≈ 5.68 µM)	0.52	2.58 (≈ 7.71 µM)	0	0	0	41.4	0
CC/C=C\C/C=C\C/C=C\CCCC(C)=O	> 10	3.01 (≈ 13.7 µM)	3	5.15 (≈ 23.4 µM)					
C=C[C@](C)(O)CC/C=C(/C)CCC=C(C)C	> 10	> 10	5.75	> 10					
C=C1OC(=O)/C(=C/CCCCCCCCCCCCC)[C@@H]1O [ISOOBTUSILACTONE A]	3.75 (≈ 12.2 µM)	2.48 (≈ 8.04 µM)	0.72	2.31 (≈ 7.49 µM)	0	0	0		0
COc1cccc2c1C(=O)c1c(O)c3c(c(O)c1C2=O)C[C@@](O)(C(=O)CO)C[C@@H]3O[C@H]1C[C@H](N)[C@H](O)[C@H](C)O1 [DOXORUBICIN]	0.0018 (≈ 0.00331 µM)	0.012 (≈ 0.0221 µM)	0.088	0.051 (≈ 0.0938 µM)					
C=CCCCCCCCCC/C=C1\C(=O)OC(=C)[C@H]1O [OBTUSILACTONE]	3.32 (≈ 11.9 µM)	3.26 (≈ 11.7 µM)	0.035	4.58 (≈ 16.5 µM)	0	0	0	64.2	0
C=C1OC(=O)/C(=C/CCCCCCCCCCCCCCC)[C@@H]1O [ISOLINDERANOLIDE]	4.57 (≈ 13.6 µM)	3.07 (≈ 9.12 µM)	0.96	3.12 (≈ 9.27 µM)	0	0	20	44.9	0
C=CCCCCCCCCC/C=C1/C(=O)OC(=C)[C@H]1O [ISOOBUTASILACTONE]	> 10	2.92 (≈ 10.5 µM)	0.065	4.6 (≈ 16.5 µM)	0	0	0		0
C=C1OC(=O)/C(=C\CCCCCCCCCCCCCCC)[C@@H]1O [LINDERANOLIDE]	0.928 (≈ 2.76 µM)	30.5 (≈ 90.6 µM)	5.23	73.6 (≈ 219 µM)					
C=C1OC(=O)/C(=C\CCCCCCCCCCCCC)[C@@H]1O [OBTUSILACTONE A]	> 10	2.93 (≈ 9.5 µM)	0.89	5.12 (≈ 16.6 µM)	0	0	0		0
